Where a SMILES comes first, the peptide text is derived from it.
B1: murine PD-1: murine PD-1, literature affinity for human PD-L1 (protein, UniProt Q02242 25-288, looked up)
Programmed cell death protein …: LEVPNGPWRSLTFYPAWLTVSEGANATFTCSLSNWSEDLMLNWNRLSPSNQTEKQAAFCNGLSQPVQDARFQIIQLPNRHDFHMNILDTRRNDSGIYLCGAISLHPKAKIEESPGAELVVTERILETSTRYPSPSPKPEGRFQGMVIGIMSALVGIPVLLLLAWALAVFCSTSMSEARGAGSKDDTLKEEPSAAPVPSVAYEELDFQGREKTPELPTACVHTEYATIVFTEGLGASAMGRRGSADGLQGPRPPRHEDGHCSWPL

Legend:
human PD-L1 [1] = biological target: T1, human PD-L1 (Homo sapiens, UniProt Q9NZQ7); test: Bio-layer interferometry binding to PD-L1; conditions: for Affinity for PD-L1 in words: bio-layer interferometry
[2] = test system: CT26 murine colon carcinoma cells; test: MTT cell viability without T cells; assay type: cell-based
[3] = test system: CT26 murine colon carcinoma tumor in BALB/c mice; test: Subcutaneous CT26 syngeneic tumor model, without pre-immunization; assay type: in vivo, mouse; conditions: PD-L1ip3 peptide alone, no pre-immunization, vs untreated CT26
[4] = test system: CT26 murine colon carcinoma tumor in BALB/c mice; test: Subcutaneous CT26 syngeneic tumor model, pre-treated with CT26 cell lysate; assay type: in vivo, mouse; conditions: PD-L1ip3 peptide only
human PD-L1 [5] = biological target: T1, human PD-L1; conditions: cited from earlier work

T1 sequence (Q9NZQ7 19-290): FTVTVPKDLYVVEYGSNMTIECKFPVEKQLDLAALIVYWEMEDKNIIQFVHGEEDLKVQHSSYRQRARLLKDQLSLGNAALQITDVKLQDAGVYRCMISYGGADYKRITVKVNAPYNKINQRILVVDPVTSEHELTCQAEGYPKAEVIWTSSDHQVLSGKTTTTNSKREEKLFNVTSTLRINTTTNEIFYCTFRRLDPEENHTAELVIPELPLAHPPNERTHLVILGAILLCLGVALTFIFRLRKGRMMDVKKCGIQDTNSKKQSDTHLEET

| Molecule | Affinity for PD-L1 relative to natural partner PD-1 (human PD-L1 [1]; KD by BLI compared with literature PD-1 KD) | Affinity for PD-L1 in words (human PD-L1 [1]) | Cytotoxicity of the peptide (summary statement) ([2]; peptide alone, CT26 cells) | Tumor growth in words, peptide alone [3] | Tumor growth in words, peptide alone, pre-immunized [4] | CT26 cell viability at 72 h, 10 µg/ml ([2]; MTT, 10 µg/ml, 72 h, not significantly different from PBS) | Affinity of murine PD-1 for human PD-L1 versus human PD-1 (human PD-L1 [5]) |
| --- | --- | --- | --- | --- | --- | --- | --- |
| CC[C@H](C)[C@H](NC(=O)[C@H](CC(C)C)NC(=O)[C@@H]1CCCN1C(=O)[C@H](CCCCN)NC(=O)[C@H](CC(C)C)NC(=O)[C@H](CCCNC(=N)N)NC(=O)[C@@H](NC(=O)CN)[C@@H](C)O)C(=O)N[C@H](C(=O)N[C@@H](CS)C(=O)N[C@H](C(=O)N[C@@H](CCC(N)=O)C(=O)N[C@@H](Cc1c[nH]c2ccccc12)C(=O)N1CCC[C@H]1C(=O)NCC(=O)N[C@@H](CC(C)C)C(=O)O)C(C)C)[C@@H](C)CC [PD-L1ip3] (H-GTRLKPLIICVQWPGL-OH) | only a few times weaker | affinity in the micromolar range | negligible cytotoxicity | neither transduction of a scrambled sequence peptide gene by the adenovirus vector (Ad-PD-L1ip3SC) nor PD-L1ip3 in peptide form alone showed a statistically significant change in tumor growth | minimal effect on tumor growth |  |  |
| VLIKIPWLRLPGCGTQ [PD-L1ip3SC] |  | very weak binding |  |  |  | slight decrease of cell viability |  |
| B1 |  |  |  |  |  |  | shows similarity to that of human PD-1 for human PD-L1 |
